Experimental data from ChEMBL document CHEMBL1152257, “New diterpenoids and the bioactivity of Erythrophleum fordii” (Bioorg Med Chem, 2008).

Columns and labels:
[1] = test system: BV-2; assay: Inhibition of NADPH oxidase in LPS-induced mouse BV2 cells assessed as NOX-dependent ROS production at 50 uM; assay type: cell-based
[2] = target: T1, Nitric oxide synthase, inducible (Mus musculus, UniProt P29477); assay: Inhibition of iNOS-mediated NO production in LPS-induced mouse BV2 cells; assay type: cell-based, BV-2
T1 sequence (P29477 whole entry): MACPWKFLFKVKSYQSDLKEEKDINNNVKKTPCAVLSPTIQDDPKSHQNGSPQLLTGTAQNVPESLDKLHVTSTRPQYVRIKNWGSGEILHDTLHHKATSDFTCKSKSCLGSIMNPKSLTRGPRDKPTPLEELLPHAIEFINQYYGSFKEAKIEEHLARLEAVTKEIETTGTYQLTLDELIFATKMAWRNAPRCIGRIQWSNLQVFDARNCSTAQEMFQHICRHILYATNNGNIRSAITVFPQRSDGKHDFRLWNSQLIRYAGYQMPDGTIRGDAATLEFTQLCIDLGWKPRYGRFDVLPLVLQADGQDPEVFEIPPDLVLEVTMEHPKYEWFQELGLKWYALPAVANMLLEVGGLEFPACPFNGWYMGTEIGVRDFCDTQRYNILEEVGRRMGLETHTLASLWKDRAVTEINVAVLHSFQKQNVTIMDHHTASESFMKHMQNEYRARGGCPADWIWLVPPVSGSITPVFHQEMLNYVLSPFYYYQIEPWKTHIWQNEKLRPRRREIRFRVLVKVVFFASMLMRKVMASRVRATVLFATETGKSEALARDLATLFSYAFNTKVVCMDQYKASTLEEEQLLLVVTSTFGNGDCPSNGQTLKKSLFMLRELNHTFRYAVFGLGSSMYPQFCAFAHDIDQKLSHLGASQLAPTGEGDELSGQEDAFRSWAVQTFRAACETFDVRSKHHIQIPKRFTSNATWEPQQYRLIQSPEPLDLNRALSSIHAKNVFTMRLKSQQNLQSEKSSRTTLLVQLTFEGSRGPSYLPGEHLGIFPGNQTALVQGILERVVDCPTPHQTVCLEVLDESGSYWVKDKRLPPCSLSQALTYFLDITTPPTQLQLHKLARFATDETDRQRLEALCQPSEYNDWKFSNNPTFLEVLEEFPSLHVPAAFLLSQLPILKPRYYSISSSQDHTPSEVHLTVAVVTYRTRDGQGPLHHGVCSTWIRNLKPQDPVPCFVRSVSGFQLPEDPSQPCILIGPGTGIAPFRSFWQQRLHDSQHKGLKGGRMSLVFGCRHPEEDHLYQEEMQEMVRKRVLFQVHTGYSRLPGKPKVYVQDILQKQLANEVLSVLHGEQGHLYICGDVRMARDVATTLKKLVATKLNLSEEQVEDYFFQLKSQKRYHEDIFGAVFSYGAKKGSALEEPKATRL

[3] = test system: Radical scavenging activity; assay: Antioxidant activity assessed as DPPH radical scavenging activity at 50 uM; assay type: functional

SMILES | inhibition [1] | IC50 [2] | Activity [3]
CC[C@H](CC[C@@H](C)[C@H]1CC[C@H]2[C@@H]3C[C@@H](O)C4=C[C@@H](O)CC[C@]4(C)[C@H]3CC[C@]12C)C(C)C | 1.6% | > 50 µM | –
CC(=O)O[C@H]1CC[C@]2(C)[C@H]3CC=C4[C@@H]5CC(C)(C)CC[C@]5(C)CC[C@@]4(C)[C@]3(C)CC[C@H]2C1(C)C [beta-AMYRIN ACETATE] | 9.2% | > 50 µM | –
C[C@@H]1[C@@H](O)CC[C@]2(C)[C@H]3CC/C(=C\C(=O)O)[C@H](C)[C@@H]3[C@@H](O)C(=O)[C@@H]12 [NORERYTHROFORDIN A] | 8.6% | > 50 µM | –
C[C@H]1C(=O)CC[C@@H]2[C@]1(C)CC[C@H]1[C@@]2(C)CC[C@@]2(C)[C@@H]3CC(C)(C)CC[C@]3(C)CC[C@]12C [FRIEDELINE] | 4.2% | > 50 µM | –
CC1(C)CC[C@]2(C)CC=C3[C@]4(C)CC[C@H]5C(C)(C)[C@@H](O)CC[C@]5(C)[C@H]4CC[C@@]3(C)[C@@H]2C1 [TARAXEROL] | 11.6% | 24.2 µM | –
CC1(C)CC[C@]2(C)CC[C@]3(C)C(=CC[C@@H]4[C@@]5(C)CCC(=O)C(C)(C)[C@@H]5CC[C@]43C)[C@@H]2C1 | 0% | > 50 µM | –
CC(=O)O[C@H]1CC[C@@H]2C(=CC[C@H]3[C@@]2(C)CC[C@@]2(C)[C@@H]4CC(C)(C)CC[C@]4(C)CC[C@]32C)C1(C)C [GLUTINOL ACETATE] | 10.8% | > 50 µM | –
C=CC(C)(C)c1[nH]c2c(CC=C(C)C)cc(CC=C(C)C)cc2c1C[C@@H]1NC(=O)[C@H](C)NC1=O [ECHINULIN] | 8.8% | > 50 µM | –
Cc1c(C)c2c(c(C)c1O)CCC(C)(C(=O)O)O2 (stereo unspecified) | – | – | 85.7%
O=C(O)c1cc(O)c(O)c(O)c1 [GALLIC ACID] | 21.5% | > 50 µM | 85.6%
c1ccc2c(c1)[I+]c1ccccc1-2 | 85.1% | – | –
CC[C@H](/C=C/[C@@H](C)[C@H]1CC[C@H]2C3=CC[C@H]4C[C@@H](O)CC[C@]4(C)[C@H]3CC[C@]12C)C(C)C | 8.7% | > 50 µM | –
CC1(C)CC[C@]2(C)CC[C@]3(C)[C@H]4CC=C5[C@@H](CC[C@H](O)C5(C)C)[C@]4(C)CC[C@@]3(C)[C@@H]2C1 [GLUTINOL] | 19.2% | > 50 µM | –
C[C@@H]1O[C@@H](Oc2c(-c3ccc(O)cc3)oc3cc(O)cc(O)c3c2=O)[C@H](O)[C@H](O)[C@H]1O | 6% | – | –
CC1(C)CC[C@]2(C)CC[C@]3(C)[C@H]4CC=C5[C@@H](CCC(=O)C5(C)C)[C@]4(C)CC[C@@]3(C)[C@@H]2C1 [GLUTINONE] | 6.6% | > 50 µM | –
CC1(C)CC[C@]2(C)CC=C3[C@]4(C)CC[C@H]5C(C)(C)C(=O)CC[C@]5(C)[C@H]4CC[C@@]3(C)[C@@H]2C1 [TARAXERONE] | 5.2% | 46.5 µM | –
CC[C@H](CC[C@@H](C)[C@H]1CC[C@H]2[C@@H]3[C@@H](O)C=C4C[C@@H](O)CC[C@]4(C)[C@H]3CC[C@]12C)C(C)C | 17.1% | > 50 µM | –
CO[C@H]1[C@H](O)[C@@H](O)[C@@H](O)[C@H](O)[C@@H]1O [METHYLINOSITOL] | 16.5% | > 50 µM | –
C[C@@H](O)/C=C/[C@@]1(O)C(C)(C)C[C@H](O)C[C@@]1(C)O | 25.2% | > 50 µM | –
